Assay results reported in patent US20230271950A1, “ANTIBACTERIAL PICOLINAMIDE COMPOUNDS” (University of Notre Dame Du Lac, priority 2020, published 2023).
In brackets after ≈: the same amount, converted by molar mass. Where two headings read alike, the source gives them in different places.

What was measured:
Bacteroides fragilis = experiment: MIC against gut bacterium Bacteroides fragilis; type: cell-based; conditions: Bacteroides fragilis, Bacteroides fragilis strain HM-709; Table 7; read-out: MIC
E. faecium NCTC7171 = experiment: MIC against E. faecium; type: cell-based, Enterococcus faecium; conditions: Enterococcus faecium, NCTC7171; E. faecium NCTC 7171; Table 10, unit inferred; read-out: Activity (MIC) against E. faecium
Corynebacterium spp. = experiment: MIC against gut bacterium Corynebacterium spp.; type: cell-based; conditions: Corynebacterium, Corynebacterium spp. strain HM-784; Table 7
MRSA (NRS70, NRS119) = experiment: MIC against MRSA strains; type: cell-based, Staphylococcus aureus; conditions: Staphylococcus aureus
Bifidobacterium longum = experiment: MIC against gut bacterium Bifidobacterium longum; type: cell-based; conditions: Bifidobacterium longum, Bifidobacterium longum strain HM-846; Table 7; read-out: MIC
Lactobacillus reuteri = experiment: MIC against gut bacterium Lactobacillus reuteri; type: cell-based; conditions: Limosilactobacillus reuteri; Lactobacillus reuteri strain HM-102; Table 7; read-out: MIC
Eubacterium sp. = experiment: MIC against gut bacterium Eubacterium sp.; type: cell-based; conditions: Eubacterium, Eubacterium sp. strain HM-178; Table 7; read-out: MIC
C. difficile = experiment: MIC by broth microdilution against C. difficile strains; type: cell-based, Clostridioides difficile; conditions: for MIC: Clostridioides difficile
Fusobacterium nucleatum = experiment: MIC against gut bacterium Fusobacterium nucleatum; type: cell-based; conditions: Fusobacterium nucleatum, Fusobacterium nucleatum strain HM-992; Table 7; read-out: MIC
S. aureus ATCC29213 = experiment: MIC against MSSA; type: cell-based, Staphylococcus aureus; conditions: Staphylococcus aureus; MSSA ATCC 29213; Table 10, unit inferred; read-out: Activity (MIC) against S. aureus
HeLa cells = experiment: XTT cytotoxicity assay with HeLa cells; type: cell-based; conditions: Homo sapiens, Table 6
Experimental: XTT assay. Cytotoxicity assays were performed in triplicate against HeLa cells (ATCC CCL-2). The IC50 values were calculated by nonlinear regression with GraphPad Prism 5 (San Diego, Calif.).
XTT assay. XTT assays were performed with HeLa cells (ATCC CCL-2) in triplicate, as previously described (Lancet 2008, 371, 1486). IC50 values were determined by nonlinear regression using GraphPad Prism 5 (San Diego, Calif.).

Lactobacillus gasseri = experiment: MIC against gut bacterium Lactobacillus gasseri; type: cell-based; conditions: Lactobacillus gasseri strain HM-644; Table 7; read-out: MIC
Veillonella sp. HM-49 = experiment: MIC against gut bacterium Veillonella sp.; type: cell-based; conditions: SP.HM49; Veillonella sp. strain HM-49; Table 7; read-out: MIC
[1] = MRSA NRS70, Table 7, read-out: MIC
[2] = ATCC43255, C. difficile ATCC43255, Table 7, read-out: MIC
[3] = ATCC43598, C. difficile ATCC43598, Table 7, read-out: MIC
[4] = BAA1801, C. difficile BAA-1801, Table 7, read-out: MIC
[5] = BAA1803, C. difficile BAA-1803, Table 7, read-out: MIC
[6] = BAA1804, C. difficile BAA-1804, Table 7, read-out: MIC
[7] = BAA1812, C. difficile BAA-1812, Table 7, read-out: MIC
[8] = BAA1814, C. difficile BAA-1814, Table 7, read-out: MIC
[9] = BAA1870, C. difficile BAA-1870, Table 7, read-out: MIC
[10] = C. difficile 23691 (VR, vancomycin-resistant), Table 7, read-out: MIC
[11] = C. difficile 23828 (FR, fidaxomicin-resistant), Table 7, read-out: MIC
[12] = C. difficile 24531 (VR, vancomycin-resistant), Table 7, read-out: MIC
[13] = C. difficile 24923 (VR, vancomycin-resistant), Table 7, read-out: MIC
[14] = C. difficile 26675 (MR, metronidazole-resistant), Table 7, read-out: MIC
[15] = C. difficile 27081 (FR, fidaxomicin-resistant), Table 7, read-out: MIC
[16] = C. difficile 27173 (MR, metronidazole-resistant), Table 7, read-out: MIC
[17] = C. difficile NR49292, Table 7, read-out: MIC
[18] = C. difficile NR49294, Table 7, read-out: MIC
[19] = C. difficile NR49302, Table 7, read-out: MIC
[20] = C. difficile NR49305, Table 7, read-out: MIC
[21] = C. difficile NR49310, Table 7, read-out: MIC
[22] = C. difficile NR49318, Table 7, read-out: MIC
[23] = C. difficile, Table 8, read-out: MIC
[24] = MIC MRSA NRS70/MIC C. difficile ATCC43255, Table 7

What does the source list for `O=C(Nc1ncco1)c1cc(-c2ccc(Cl)c(Cl)c2)ccn1` [Compound 87, 4-(3,4-Dichlorophenyl)-N-(oxazol-2-yl)picolinamide]?
MIC (Bacteroides fragilis): 4 µg/mL (≈ 12 µM); MIC (E. faecium NCTC7171): ≥ 128 µg/mL; MIC (Corynebacterium spp.): 16 µg/mL (≈ 47.9 µM); MIC (MRSA (NRS70, NRS119); [1]): 128 µg/mL (≈ 383 µM); MIC (MRSA (NRS70, NRS119); MRSA strain NRS70, read-out: MIC against MRSA): 128 µg/mL (≈ 383 µM); MIC (MRSA (NRS70, NRS119); NRS70 strain, Table 3 (SAR^2 and SAR^3), read-out: MIC MRSA): 128 µg/mL (≈ 383 µM); MIC (Bifidobacterium longum): > 16 µg/mL; MIC (Lactobacillus reuteri): 4 µg/mL (≈ 12 µM); MIC (Eubacterium sp.): 8 µg/mL (≈ 23.9 µM); MIC (C. difficile; ATCC43255, ATCC 43255, ribotype 087, Table 3 (SAR^2 and SAR^3), read-out: MIC C. difficile): 0.125 µg/mL (≈ 0.374 µM); MIC (C. difficile; [2]): 0.125 µg/mL (≈ 0.374 µM); MIC (C. difficile; ATCC43255, C. difficile ATCC 43255, read-out: MIC against C. difficile): 0.125 µg/mL (≈ 0.374 µM); MIC (C. difficile; [3]): 0.25 µg/mL (≈ 0.748 µM); MIC (C. difficile; [4]): 0.25 µg/mL (≈ 0.748 µM); MIC (C. difficile; [5]): 0.25 µg/mL (≈ 0.748 µM); MIC (C. difficile; [6]): 0.125 µg/mL (≈ 0.374 µM); MIC (C. difficile; [7]): 0.25 µg/mL (≈ 0.748 µM); MIC (C. difficile; [8]): 0.125 µg/mL (≈ 0.374 µM); MIC (C. difficile; [9]): 0.25 µg/mL (≈ 0.748 µM); MIC (C. difficile; [10]): 0.5 µg/mL (≈ 1.5 µM); MIC (C. difficile; [11]): 0.25 µg/mL (≈ 0.748 µM); MIC (C. difficile; [12]): 0.25 µg/mL (≈ 0.748 µM); MIC (C. difficile; [13]): 0.5 µg/mL (≈ 1.5 µM); MIC (C. difficile; [14]): 0.5 µg/mL (≈ 1.5 µM); MIC (C. difficile; [15]): 0.5 µg/mL (≈ 1.5 µM); MIC (C. difficile; [16]): 0.5 µg/mL (≈ 1.5 µM); MIC (C. difficile; [17]): 0.25 µg/mL (≈ 0.748 µM); MIC (C. difficile; [18]): 0.25 µg/mL (≈ 0.748 µM); MIC (C. difficile; [19]): 0.25 µg/mL (≈ 0.748 µM); MIC (C. difficile; [20]): 0.25 µg/mL (≈ 0.748 µM); MIC (C. difficile; [21]): 0.125 µg/mL (≈ 0.374 µM); MIC (C. difficile; [22]): 0.25 µg/mL (≈ 0.748 µM); MIC (C. difficile; [23]): 0.125 µg/mL (≈ 0.374 µM); Selectivity (C. difficile; [24]): 1024; Selectivity (C. difficile; MIC MRSA/MIC C. difficile, Table 3): 1024; Selectivity (C. difficile; Table 8): 1024; MIC (Fusobacterium nucleatum): 8 µg/mL (≈ 23.9 µM); MIC (S. aureus ATCC29213): ≥ 128 µg/mL; IC50 (HeLa cells): 95.2 ± 1 µg/mL (≈ 285 µM); MIC (Lactobacillus gasseri): > 16 µg/mL; MIC (Veillonella sp. HM-49): 16 µg/mL (≈ 47.9 µM)

`O=C(Nc1ncco1)c1cc(Oc2cccc(OC(F)(F)F)c2)ccn1` [Compound 108, N-(Oxazol-2-yl)-4-(3-(trifluoromethoxy)phenoxy)picolinamide] was tested. Which MIC (Bacteroides fragilis) did it give?
The MIC was 8 µg/mL (≈ 21.9 µM).

What about the MIC (E. faecium NCTC7171) of the same compound?
Its MIC is 64 µg/mL (≈ 175 µM).

And the MIC (Corynebacterium spp.)?
Its MIC is > 16 µg/mL.

What about the MIC (MRSA (NRS70, NRS119); [1]) of the same compound?
The MIC was 64 µg/mL (≈ 175 µM).

What about the MIC (Bifidobacterium longum) of the same compound?
Its MIC is 16 µg/mL (≈ 43.8 µM).

What about the MIC (Lactobacillus reuteri) of the same compound?
Its MIC is 4 µg/mL (≈ 11 µM).

And the MIC (Eubacterium sp.)?
Its MIC is 8 µg/mL (≈ 21.9 µM).

What about the MIC (C. difficile; [2]) of the same compound?
The MIC was 1 µg/mL (≈ 2.74 µM).

What about the MIC (C. difficile; [3]) of the same compound?
Its MIC is 0.5 µg/mL (≈ 1.37 µM).

What about the MIC (C. difficile; [4]) of the same compound?
Its MIC is 0.25 µg/mL (≈ 0.684 µM).

And the MIC (C. difficile; [5])?
Its MIC is 0.5 µg/mL (≈ 1.37 µM).

And the MIC (C. difficile; [6])?
Its MIC is 0.25 µg/mL (≈ 0.684 µM).

And the MIC (C. difficile; [7])?
The MIC was 1 µg/mL (≈ 2.74 µM).

What about the MIC (C. difficile; [8]) of the same compound?
The MIC was 0.25 µg/mL (≈ 0.684 µM).

And the MIC (C. difficile; [9])?
The MIC was 0.5 µg/mL (≈ 1.37 µM).

What about the MIC (C. difficile; [10]) of the same compound?
The MIC was 0.25 µg/mL (≈ 0.684 µM).

And the MIC (C. difficile; [11])?
The MIC was 1 µg/mL (≈ 2.74 µM).

And the MIC (C. difficile; [12])?
The MIC was 0.25 µg/mL (≈ 0.684 µM).

And the MIC (C. difficile; [13])?
Its MIC is 0.25 µg/mL (≈ 0.684 µM).

And the MIC (C. difficile; [14])?
The MIC was 1 µg/mL (≈ 2.74 µM).

What about the MIC (C. difficile; [15]) of the same compound?
The MIC was 0.25 µg/mL (≈ 0.684 µM).

And the MIC (C. difficile; [16])?
The MIC was 0.5 µg/mL (≈ 1.37 µM).

What about the MIC (C. difficile; [17]) of the same compound?
Its MIC is 0.25 µg/mL (≈ 0.684 µM).

And the MIC (C. difficile; [18])?
The MIC was 0.25 µg/mL (≈ 0.684 µM).

What about the MIC (C. difficile; [19]) of the same compound?
Its MIC is 1 µg/mL (≈ 2.74 µM).

And the MIC (C. difficile; [20])?
Its MIC is 0.25 µg/mL (≈ 0.684 µM).

And the MIC (C. difficile; [21])?
The MIC was 0.5 µg/mL (≈ 1.37 µM).

And the MIC (C. difficile; [22])?
Its MIC is 0.5 µg/mL (≈ 1.37 µM).

And the MIC (C. difficile; [23])?
The MIC was 1 µg/mL (≈ 2.74 µM).

What about the Selectivity (C. difficile; [24]) of the same compound?
Its Selectivity is 64.

What about the Selectivity (C. difficile; Table 8) of the same compound?
The Selectivity was 64.

And the MIC (Fusobacterium nucleatum)?
Its MIC is 8 µg/mL (≈ 21.9 µM).

What about the MIC (S. aureus ATCC29213) of the same compound?
The MIC was 64 µg/mL (≈ 175 µM).

And the IC50 (HeLa cells)?
Its IC50 is 93.3 ± 1.7 µg/mL (≈ 255 µM).

And the MIC (Lactobacillus gasseri)?
Its MIC is > 16 µg/mL.

What about the MIC (Veillonella sp. HM-49) of the same compound?
The MIC was 16 µg/mL (≈ 43.8 µM).
